Tests used:
[1] = test system: DSB repair pathways (NHEJ, MMEJ, HR) at the AAVS1 locus in U2OS cells; assay: Cas9 assay (DSBR-Seq): NHEJ, MMEJ and HR quantified by sequencing repair events at a site-directed DSB; assay type: cell-based
Protocol: FIG. 4. A-G. E7 expression shifts DNA double strand break repair pathway choice towards MMEJ. (FIG. 4 A) Schematic of DSBR-Seq Assay. The sequencing reads are classified into NHEJ (<5 bp deletion) in (FIG. 4 B), MMEJ (>5 bp deletion with at least 2 bp MH) in (FIG. 4 C) and HR (substitutions from HR donor) in (FIG. 4 D). The DNApk inhibitor […] was used at 1 μM (micromolar) concentration. (FIG. 4 E) cNHEJ measured as a fraction of mutant reads with deletion sizes less than 5 bp. (FIG. 4 F) E7 expression favors mutant reads with deletion sizes larger than 5 bp representing DSBs repaired by MMEJ. (FIG. 4 G) E7 expression results in lower deletion frequency of small deletions near the double strand break. Results represent the mean of 3 independent experiments+/−the standard error of the mean. * represents a p-vale of <0.05.
To measure DSB repair pathway tradeoffs within an endogenous genomic locus, we used the Cas9 endonuclease to create a site-directed DSB at the AAVS1 locus, chosen because of its characterization as a “safe” genomic locus for integration. Cas9 creates a blunt-ended DSB and repair events at the breaksite can be cataloged in a pool of cells using PCR amplification of a region surrounding the breaksite and massively parallel sequencing to quantify repair outcomes. […] NHEJ is measured with sequencing events with small (1-5) base pair deletions whereas MMEJ is quantified using sequencing events with large deletions and microhomology at the breaksite. All three pathways are thereby quantifiable in a single set of sequencing data in a single pool of cells (FIG. 4 A). […]
To quantify NHEJ, MMEJ and HR at an endogenous breaksite, a Cas9 and gRNA expression plasmid and a donor template oligonucleotide was transfected into U2OS cells with and without E7 expressed. A PCR product surrounding the breaksite was sequenced using Illumina-based NGS technology and the pattern of deletions at the breaksite was analyzed and quantified according to methods described within the Example 2 (SI appendix). […]

[2] = target: Rb (retinoblastoma protein, RB1) (human) (UniProt P06400); assay: cell-based or functional assay
Chain of UniProt P06400 (P06400 2-928 limits assumed): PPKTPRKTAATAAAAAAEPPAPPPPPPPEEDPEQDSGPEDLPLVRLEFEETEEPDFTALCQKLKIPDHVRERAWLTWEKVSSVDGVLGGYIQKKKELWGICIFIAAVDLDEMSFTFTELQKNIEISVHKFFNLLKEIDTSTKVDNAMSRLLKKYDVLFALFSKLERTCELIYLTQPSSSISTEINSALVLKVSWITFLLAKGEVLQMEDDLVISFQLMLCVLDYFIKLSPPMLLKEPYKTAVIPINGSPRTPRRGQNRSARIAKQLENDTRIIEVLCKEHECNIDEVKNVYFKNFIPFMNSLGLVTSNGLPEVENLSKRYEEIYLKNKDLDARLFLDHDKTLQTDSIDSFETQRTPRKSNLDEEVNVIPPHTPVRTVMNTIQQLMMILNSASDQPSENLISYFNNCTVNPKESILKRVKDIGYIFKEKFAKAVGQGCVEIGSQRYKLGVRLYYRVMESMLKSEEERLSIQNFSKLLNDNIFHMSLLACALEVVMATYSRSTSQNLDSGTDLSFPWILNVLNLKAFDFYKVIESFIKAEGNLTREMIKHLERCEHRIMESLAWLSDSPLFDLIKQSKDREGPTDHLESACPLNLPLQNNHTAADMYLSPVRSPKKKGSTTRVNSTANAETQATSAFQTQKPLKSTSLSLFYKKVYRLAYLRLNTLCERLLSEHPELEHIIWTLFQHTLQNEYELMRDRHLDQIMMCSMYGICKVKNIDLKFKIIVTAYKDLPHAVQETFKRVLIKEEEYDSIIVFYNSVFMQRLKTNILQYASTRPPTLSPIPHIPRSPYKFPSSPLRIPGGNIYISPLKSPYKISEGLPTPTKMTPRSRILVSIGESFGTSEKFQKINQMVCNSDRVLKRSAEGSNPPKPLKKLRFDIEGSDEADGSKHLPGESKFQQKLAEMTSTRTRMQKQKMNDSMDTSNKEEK

Row | Compound | small deletions (1-5 base pairs), reflective of NHEJ ([1]; inhibitor at 1 μM (FIG. 4 B)) | larger deletions (>5 bp) with microhomology (≥2 bp) (MMEJ) ([1]; inhibitor at 1 μM (FIG. 4 C)) | HR (substitutions from HR donor) ([1]; inhibitor at 1 μM (FIG. 4 D)) | MMEJ activity (percentage of GFP positive cells, U2OS EJ2-GFP reporter, against empty vector) [2] [%] | decrease in NHEJ activity (percentage of GFP positive cells, U2OS EJ5-GFP reporter, against empty vector) [2] [%]
1 | O=c1cc(N2CCOCC2)oc2c(-c3cccc4c3sc3ccccc34)cccc12 [Nu7441] | decrease | increase | increase |  | 
2 | HPV16 E7 oncoprotein (from UniProt P03129 1-98) |  |  |  | 42 | 31

Reference: patent US20230279495A1, “MOLECULAR SIGNATURES OF RADIATION SENSITIVITY IN TUMORS, AND METHODS OF USE THEREOF” (MEMORIAL SLOAN KETTERING CANCER CENTER, priority 2019, published 2023)
